Measurements taken from ChEMBL document CHEMBL4251601 (Eur J Med Chem, 2018).

Assays:
[1] = AUC (0 to infinity) in Sprague-Dawley rat at 5 mg/kg, po administered as single dose by LC-MS/MS analysis; assay type: ADME, organism-based; design: dose 5 mg/kg, route oral, time infinity; settings: Sprague-Dawley, in vivo
[2] = biological target: Insulin receptor (Homo sapiens) (UniProt P06213); assay: Inhibition of recombinant human GST-tagged INSR cytoplasmic domain expressed in baculovirus expression system at 0.1 uM by Z'-Lyte assay relative to control
[3] = system: Proto-oncogene tyrosine-protein kinase receptor Ret (Homo sapiens), P07949 [V804L]; assay: Inhibition of recombinant human GST-tagged RET V804L mutant expressed in baculovirus expression system at 1 uM by Z'-Lyte assay relative to control
[4] = system: ALK tyrosine kinase receptor (Homo sapiens), Q9UM73 [L1196M]; assay: Inhibition of recombinant N-terminal GST-tagged human ALK cytoplasmic domain (1058 to 1620 residues) L1196M mutant expressed in baculovirus expression system at 1 uM by TR-FRET assay relative to control
[5] = biological target: Serine/threonine-protein kinase Chk2 (Homo sapiens) (UniProt O96017); assay: Inhibition of recombinant full length human His-tagged CHEK2 expressed in baculovirus expression system at 1 uM by Z'-Lyte assay relative to control
Chain of Serine/threonine-protein kinase Chk2 (Homo sapiens) (O96017 whole entry, the tested form may be a part): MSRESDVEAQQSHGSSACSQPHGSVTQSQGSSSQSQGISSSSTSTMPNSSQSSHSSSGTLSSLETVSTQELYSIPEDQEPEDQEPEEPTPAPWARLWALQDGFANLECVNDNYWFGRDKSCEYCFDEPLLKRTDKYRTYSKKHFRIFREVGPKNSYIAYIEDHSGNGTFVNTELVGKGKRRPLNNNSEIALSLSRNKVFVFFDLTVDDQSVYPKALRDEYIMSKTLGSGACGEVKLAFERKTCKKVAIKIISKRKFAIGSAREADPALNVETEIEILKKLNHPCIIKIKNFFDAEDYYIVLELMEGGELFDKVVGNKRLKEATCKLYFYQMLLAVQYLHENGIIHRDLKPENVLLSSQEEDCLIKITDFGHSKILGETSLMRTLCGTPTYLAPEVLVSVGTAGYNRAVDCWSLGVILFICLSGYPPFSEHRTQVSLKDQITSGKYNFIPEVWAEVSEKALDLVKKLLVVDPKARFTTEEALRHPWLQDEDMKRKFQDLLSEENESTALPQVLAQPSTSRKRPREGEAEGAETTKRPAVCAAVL

[6] = biological target: Hepatocyte growth factor receptor (Homo sapiens) (UniProt P08581); assay: Inhibition of recombinant human His-tagged c-Met cytoplasmic domain expressed in baculovirus expression system at 1 uM by Z'-Lyte assay relative to control
[7] = biological target: Proto-oncogene tyrosine-protein kinase receptor Ret (Homo sapiens) (UniProt P07949); assay: Inhibition of recombinant human GST-tagged RET cytoplasmic domain (658 to 1114 residues) expressed in baculovirus expression system at 0.1 uM by Z'-Lyte assay relative to control
[8] = biological target: Tyrosine-protein kinase ITK/TSK (Homo sapiens) (UniProt Q08881); assay: Inhibition of recombinant full length human GST-tagged ITK expressed in baculovirus expression system at 1 uM by TR-FRET assay relative to control
[9] = biological target: ALK tyrosine kinase receptor (Homo sapiens) (UniProt Q9UM73); assay: Inhibition of recombinant N-terminal GST-tagged human ALK cytoplasmic domain (1058 to 1620 residues) expressed in baculovirus expression system at 0.1 uM by TR-FRET assay relative to control
Chain of ALK tyrosine kinase receptor (Homo sapiens) (Q9UM73 19-1620 limits assumed): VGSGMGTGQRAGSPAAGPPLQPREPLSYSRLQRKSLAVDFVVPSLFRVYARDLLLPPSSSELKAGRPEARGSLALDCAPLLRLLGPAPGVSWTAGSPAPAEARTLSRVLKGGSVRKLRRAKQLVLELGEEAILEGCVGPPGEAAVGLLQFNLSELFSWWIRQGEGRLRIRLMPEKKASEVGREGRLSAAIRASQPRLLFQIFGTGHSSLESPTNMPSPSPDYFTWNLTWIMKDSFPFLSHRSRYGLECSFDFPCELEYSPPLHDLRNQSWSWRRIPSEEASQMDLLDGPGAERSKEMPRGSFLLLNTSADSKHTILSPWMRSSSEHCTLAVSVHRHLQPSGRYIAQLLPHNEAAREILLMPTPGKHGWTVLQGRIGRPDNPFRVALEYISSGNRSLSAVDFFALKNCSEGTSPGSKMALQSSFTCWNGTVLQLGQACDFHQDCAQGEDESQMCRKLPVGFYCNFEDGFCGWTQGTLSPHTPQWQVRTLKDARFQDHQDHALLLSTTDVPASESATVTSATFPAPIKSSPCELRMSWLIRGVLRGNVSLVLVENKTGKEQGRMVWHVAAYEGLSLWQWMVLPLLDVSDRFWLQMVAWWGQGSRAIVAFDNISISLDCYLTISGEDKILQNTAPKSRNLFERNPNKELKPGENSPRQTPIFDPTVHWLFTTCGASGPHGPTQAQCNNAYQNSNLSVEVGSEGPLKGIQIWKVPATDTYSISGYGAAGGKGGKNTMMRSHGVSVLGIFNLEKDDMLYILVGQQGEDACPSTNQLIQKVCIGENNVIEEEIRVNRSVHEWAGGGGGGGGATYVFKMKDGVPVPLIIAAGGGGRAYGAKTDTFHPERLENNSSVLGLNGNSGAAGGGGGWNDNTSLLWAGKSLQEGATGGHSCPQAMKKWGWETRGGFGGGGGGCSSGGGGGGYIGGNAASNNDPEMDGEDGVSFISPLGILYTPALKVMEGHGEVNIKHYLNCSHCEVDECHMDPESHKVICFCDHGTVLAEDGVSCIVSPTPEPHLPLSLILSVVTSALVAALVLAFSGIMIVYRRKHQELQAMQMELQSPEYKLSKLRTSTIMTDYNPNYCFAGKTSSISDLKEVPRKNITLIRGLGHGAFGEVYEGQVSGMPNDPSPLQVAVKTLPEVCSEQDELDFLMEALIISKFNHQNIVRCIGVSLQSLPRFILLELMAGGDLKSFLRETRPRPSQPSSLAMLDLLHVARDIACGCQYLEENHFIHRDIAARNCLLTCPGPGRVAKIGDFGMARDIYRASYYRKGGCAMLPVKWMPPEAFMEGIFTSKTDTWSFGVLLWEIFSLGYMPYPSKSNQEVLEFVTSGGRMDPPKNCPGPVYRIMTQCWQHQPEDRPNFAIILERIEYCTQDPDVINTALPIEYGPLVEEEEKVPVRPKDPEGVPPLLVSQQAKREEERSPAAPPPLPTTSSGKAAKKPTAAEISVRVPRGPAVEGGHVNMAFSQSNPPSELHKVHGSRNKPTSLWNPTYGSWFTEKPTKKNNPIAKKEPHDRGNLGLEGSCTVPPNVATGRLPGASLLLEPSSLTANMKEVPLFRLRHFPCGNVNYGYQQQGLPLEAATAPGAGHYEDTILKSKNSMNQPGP

[10] = biological target: Calcium/calmodulin-dependent protein kinase type II subunit beta (Homo sapiens) (UniProt Q13554); assay: Inhibition of recombinant full length human His-tagged CAMK2B expressed in baculovirus expression system at 1 uM by Z'-Lyte assay relative to control
Chain of Calcium/calmodulin-dependent protein kinase type II subunit beta (Homo sapiens) (Q13554 whole entry): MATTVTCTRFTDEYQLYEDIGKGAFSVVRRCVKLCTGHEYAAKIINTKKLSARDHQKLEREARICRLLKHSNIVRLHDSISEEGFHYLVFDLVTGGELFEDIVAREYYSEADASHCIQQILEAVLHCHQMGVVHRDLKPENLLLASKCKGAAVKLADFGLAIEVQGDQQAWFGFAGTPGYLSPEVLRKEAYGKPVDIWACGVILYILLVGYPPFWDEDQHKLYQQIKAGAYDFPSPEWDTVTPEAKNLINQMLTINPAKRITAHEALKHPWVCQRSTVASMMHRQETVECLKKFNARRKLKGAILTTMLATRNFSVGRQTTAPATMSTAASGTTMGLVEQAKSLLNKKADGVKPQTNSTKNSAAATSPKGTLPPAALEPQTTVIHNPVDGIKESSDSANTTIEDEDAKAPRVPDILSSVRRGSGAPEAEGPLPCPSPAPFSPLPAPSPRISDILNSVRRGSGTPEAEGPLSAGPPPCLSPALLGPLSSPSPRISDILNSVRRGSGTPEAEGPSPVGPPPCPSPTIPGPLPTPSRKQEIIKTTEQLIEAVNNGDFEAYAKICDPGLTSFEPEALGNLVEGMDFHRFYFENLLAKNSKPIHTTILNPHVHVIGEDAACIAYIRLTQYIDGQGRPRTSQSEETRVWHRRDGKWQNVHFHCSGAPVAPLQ

[11] = biological target: G protein-coupled receptor kinase 5 (Homo sapiens) (UniProt P34947); assay: Inhibition of recombinant human full length GST-tagged GRK5 expressed in baculovirus expression system at 1 uM by Z'-Lyte assay relative to control
[12] = Half life in CD-1 mouse plasma at 10 mg/kg, po administered as single dose by LC-MS/MS analysis; assay type: ADME, organism-based
[13] = biological target: Platelet-derived growth factor receptor beta (Homo sapiens) (UniProt P09619); assay: Inhibition of recombinant human His-tagged PDGFRbeta cytoplasmic domain expressed in baculovirus expression system at 0.1 uM by Z'-Lyte assay relative to control
[14] = biological target: CDK8/Cyclin C (Homo sapiens) (UniProt P49336+P24863); assay: Inhibition of recombinant full length human His-tagged CDK8/Cyclin-C expressed in baculovirus expression system at 0.1 uM by LanthaScreen assay relative to control
[15] = biological target: Angiopoietin-1 receptor (Homo sapiens) (UniProt Q02763); assay: Inhibition of recombinant human GST-tagged TIE2 cytoplasmic domain expressed in baculovirus expression system at 0.1 uM by Z'-Lyte assay relative to control
[16] = biological target: Mitogen-activated protein kinase 1 (Homo sapiens) (UniProt P28482); assay: Inhibition of recombinant human full length GST-tagged ERK2 expressed in Escherichia coli at 1 uM by Z'-Lyte assay relative to control
[17] = biological target: Fibroblast growth factor receptor 1 (Homo sapiens) (UniProt P11362); assay: Inhibition of recombinant human His-tagged FGFR1 cytoplasmic domain expressed in baculovirus expression system at 0.1 uM by Z'-Lyte assay relative to control
[18] = system: Epidermal growth factor receptor (Homo sapiens), P00533 [UNDEFINED MUTATION]; assay: Inhibition of recombinant human EGFR d746 to 750 deletion/T790M mutant at 0.1 uM by TR-FRET assay relative to control
[19] = biological target: Casein kinase II subunit alpha (Homo sapiens) (UniProt P68400); assay: Inhibition of recombinant full length human His-tagged CK2alpha1 expressed in baculovirus expression system at 1 uM by Z'-Lyte assay relative to control
[20] = biological target: PI3-kinase p110-alpha/p85-alpha (Homo sapiens) (UniProt P27986+P42336); assay: Inhibition of recombinant full-length human N-terminal His6-tagged p110alpha/p85alpha expressed in baculovirus infected Sf21 cells at 0.1 uM by ADP-Glo assay relative to control
[21] = AUC (0 to infinity) in CD-1 mouse plasma at 10 mg/kg, po administered as single dose by LC-MS/MS analysis; assay type: ADME, organism-based; design: dose 10 mg/kg, time infinity, route oral
[22] = biological target: ALK tyrosine kinase receptor (Homo sapiens) (UniProt Q9UM73); assay: Inhibition of recombinant N-terminal GST-tagged human ALK cytoplasmic domain (1058 to 1620 residues) expressed in baculovirus expression system at 1 uM by TR-FRET assay relative to control
[23] = biological target: Phosphatidylinositol 4,5-bisphosphate 3-kinase catalytic subunit beta isoform (Homo sapiens) (UniProt P42338); assay: Inhibition of PI3K beta (unknown origin) at 1 uM by ADP-Glo assay relative to control
[24] = biological target: Tyrosine-protein kinase JAK2 (Homo sapiens) (UniProt O60674); assay: Inhibition of recombinant human GST-tagged JAK2 expressed in baculovirus expression system at 1 uM by TR-FRET assay relative to control
[25] = biological target: STE20-like serine/threonine-protein kinase (Homo sapiens) (UniProt Q9H2G2); assay: Inhibition of recombinant human full length GST-tagged SLK expressed in baculovirus expression system at 0.1 uM by LanthaScreen assay relative to control
Chain of STE20-like serine/threonine-protein kinase (Homo sapiens) (Q9H2G2 whole entry, looked up): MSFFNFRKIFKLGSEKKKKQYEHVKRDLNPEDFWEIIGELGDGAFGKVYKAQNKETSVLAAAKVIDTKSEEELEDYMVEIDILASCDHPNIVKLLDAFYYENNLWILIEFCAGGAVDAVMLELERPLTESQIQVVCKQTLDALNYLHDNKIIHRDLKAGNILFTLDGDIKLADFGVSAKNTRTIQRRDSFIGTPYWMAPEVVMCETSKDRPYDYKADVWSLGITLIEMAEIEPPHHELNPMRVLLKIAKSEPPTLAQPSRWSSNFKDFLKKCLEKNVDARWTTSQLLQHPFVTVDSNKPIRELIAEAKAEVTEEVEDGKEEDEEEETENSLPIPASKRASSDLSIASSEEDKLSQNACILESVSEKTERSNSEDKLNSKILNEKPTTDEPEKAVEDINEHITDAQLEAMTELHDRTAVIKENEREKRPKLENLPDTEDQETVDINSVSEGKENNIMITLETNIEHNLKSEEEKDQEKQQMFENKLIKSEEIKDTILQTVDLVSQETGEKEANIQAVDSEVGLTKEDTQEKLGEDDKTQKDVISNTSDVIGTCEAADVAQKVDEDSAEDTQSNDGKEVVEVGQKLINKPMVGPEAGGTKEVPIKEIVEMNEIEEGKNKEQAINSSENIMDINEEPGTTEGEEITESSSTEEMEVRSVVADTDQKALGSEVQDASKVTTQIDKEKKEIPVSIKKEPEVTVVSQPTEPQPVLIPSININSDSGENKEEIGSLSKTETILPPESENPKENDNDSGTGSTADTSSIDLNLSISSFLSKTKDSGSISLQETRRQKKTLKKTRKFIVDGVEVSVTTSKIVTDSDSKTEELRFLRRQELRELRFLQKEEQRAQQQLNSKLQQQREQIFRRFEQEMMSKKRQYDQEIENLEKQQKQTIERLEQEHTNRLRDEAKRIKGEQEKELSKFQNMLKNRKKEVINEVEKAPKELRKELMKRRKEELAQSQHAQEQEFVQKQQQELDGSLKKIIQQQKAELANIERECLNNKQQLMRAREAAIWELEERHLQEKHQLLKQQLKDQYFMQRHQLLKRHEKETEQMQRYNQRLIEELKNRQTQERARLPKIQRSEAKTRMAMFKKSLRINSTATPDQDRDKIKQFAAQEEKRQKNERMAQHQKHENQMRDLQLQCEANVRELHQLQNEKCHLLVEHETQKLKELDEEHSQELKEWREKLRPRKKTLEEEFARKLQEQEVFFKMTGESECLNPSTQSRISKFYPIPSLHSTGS

[26] = Volume of distribution at steady state in Sprague-Dawley rat at 2 mg/kg, iv administered as single dose by LC-MS/MS analysis; assay type: ADME, organism-based; settings: in vivo, read-out: Vdss
[27] = system: Epidermal growth factor receptor (Homo sapiens), P00533 [L858R,T790M]; assay: Inhibition of recombinant human GST-tagged EGFR T790M/L858R double mutant expressed in baculovirus expression system at 1 uM by TR-FRET assay relative to control
[28] = biological target: Glycogen synthase kinase-3 beta (Homo sapiens) (UniProt P49841); assay: Inhibition of recombinant human full length His-tagged GSK3beta expressed in baculovirus expression system at 1 uM by Z'-Lyte assay relative to control
U-87 MG = assay: Antitumor activity against luciferase-fused human U87MG cells orthotopically xenografted in nude mouse assessed as increase in mouse life span at 6.25 mg/kg, po qd for 5 weeks relative to control; assay type: functional, U-87MG ATCC; settings: 840 h
[29] = biological target: Serine/threonine-protein kinase 10 (Homo sapiens) (UniProt O94804); assay: Inhibition of LOK1 (unknown origin) at 1 uM by Z'-Lyte assay relative to control
Chain of Serine/threonine-protein kinase 10 (Homo sapiens) (O94804 whole entry, looked up): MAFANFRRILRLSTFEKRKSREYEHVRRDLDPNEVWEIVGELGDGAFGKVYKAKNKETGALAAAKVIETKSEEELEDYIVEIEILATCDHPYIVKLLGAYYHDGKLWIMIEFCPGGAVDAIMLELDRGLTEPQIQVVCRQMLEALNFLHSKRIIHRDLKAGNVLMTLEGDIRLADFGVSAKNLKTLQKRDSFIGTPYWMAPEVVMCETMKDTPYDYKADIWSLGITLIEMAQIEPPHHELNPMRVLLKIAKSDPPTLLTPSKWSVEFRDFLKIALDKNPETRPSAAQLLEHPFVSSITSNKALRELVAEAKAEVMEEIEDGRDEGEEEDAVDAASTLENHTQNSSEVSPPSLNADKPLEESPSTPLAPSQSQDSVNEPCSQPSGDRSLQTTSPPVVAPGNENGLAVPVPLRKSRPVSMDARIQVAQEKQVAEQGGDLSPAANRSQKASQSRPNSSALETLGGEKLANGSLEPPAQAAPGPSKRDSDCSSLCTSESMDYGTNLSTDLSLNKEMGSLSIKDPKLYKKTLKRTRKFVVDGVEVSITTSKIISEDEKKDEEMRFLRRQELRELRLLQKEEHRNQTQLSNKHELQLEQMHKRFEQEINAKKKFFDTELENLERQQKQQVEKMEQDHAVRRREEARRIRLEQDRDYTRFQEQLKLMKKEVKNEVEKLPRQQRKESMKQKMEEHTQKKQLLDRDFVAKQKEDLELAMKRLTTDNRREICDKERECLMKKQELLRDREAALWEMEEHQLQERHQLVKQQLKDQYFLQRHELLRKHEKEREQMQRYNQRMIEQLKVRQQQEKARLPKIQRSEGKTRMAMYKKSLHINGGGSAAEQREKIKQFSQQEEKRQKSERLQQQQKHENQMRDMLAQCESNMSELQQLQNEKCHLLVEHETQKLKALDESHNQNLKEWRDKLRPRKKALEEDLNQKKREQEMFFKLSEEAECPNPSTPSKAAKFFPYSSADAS

CC1=Nc2c(F)cc(-c3nc(Nc4ccc(C5CCN(C)CC5)cn4)ncc3F)cc2C12CCCC2 [CROZBACICLIB]
AUC(0-inf) [1]: 1580 ng·h/mL | inhibition [2]: 2% | inhibition [3]: 16% | inhibition [4]: 34% | inhibition [5]: 6% | inhibition [6]: 87% | inhibition [7]: 0% | inhibition [8]: 3% | inhibition [9]: 7% | inhibition [10]: 87% | inhibition [11]: 1% | half-life [12]: 6.03 h | inhibition [13]: 4% | inhibition [14]: 43% | inhibition [15]: -6% | inhibition [16]: 5% | inhibition [17]: -8% | inhibition [18]: 26% | inhibition [19]: 23% | inhibition [20]: -3% | AUC(0-inf) [21]: 9110 ng·h/mL | inhibition [22]: 89% | inhibition [23]: 11% | inhibition [24]: 64% | inhibition [25]: 11% | Vd [26]: 17.4 L/kg | inhibition [27]: 79% | inhibition [28]: 81% | ILS at 6.25 mg/kg (U-87 MG): 45% | inhibition [29]: 81%
